Reference: patent US20050187389A1, “Pyrrolopyrimidine derivatives and analogs and their use in the treatment and prevention of diseases” (Ambit Biosciences Corporation, priority 2004, published 2005)

Key:
[1] = test system: MV4,11 cells; experiment: (MV 4,11) Cell Proliferation Assay with 0.5% Serum "CS0001"; type: cell-based; conditions: Homo sapiens
Description: (§1) The ability of FLT3 kinase inhibitors to inhibit cellular proliferation was also examined. MV4:11 was a cell line derived from a patient with acute myelogenous leukemia. It expressed a mutant FLT3 protein that was constitutively active. […] Inhibition of FLT3 kinase activity prevented proliferation of these cells, and thus the MV4:11 cell line can be used a model for cellular activity of small molecule inhibitors of FLT3.
(§2) FLT3 Assay using MV4,11 Cells
(§3) MV4,11 cells were grown in an incubator @ 37° C. in 5% CO2 in Medium 2 (RPMI, 10% FBS, 4 mM glutamine, Penn/Strep). The cells were counted daily and the cell density was kept between 1e5 and 8e5 cells/ml.
Day One: Enough cells were harvested for experiments to be conducted in 50 ml conical tubes. The harvested cells were spun at 500 g for 5 min at 4° C., the supernatant was then aspirated and the cells were resuspended in the starting volume of 1× PBS. The cells were again spun at 500 g for 5 min at 4° C. and the supernatant again aspirated. […]
(§4) Day Two: The cells were counted and enough medium 3 was added to decrease density to 2e5 cells/ml. 50 ul (10,000 cells) was aliquoted into each well of a 96 well optical plate using multichannel pipetman. […]

[2] = target: T1, FLT3 (Homo sapiens, UniProt P36888); experiment: FLT3 (DKIN) phage-display competitive binding assay
T1 construct: made in house
T1 sequence (P36888 610-943 limits assumed): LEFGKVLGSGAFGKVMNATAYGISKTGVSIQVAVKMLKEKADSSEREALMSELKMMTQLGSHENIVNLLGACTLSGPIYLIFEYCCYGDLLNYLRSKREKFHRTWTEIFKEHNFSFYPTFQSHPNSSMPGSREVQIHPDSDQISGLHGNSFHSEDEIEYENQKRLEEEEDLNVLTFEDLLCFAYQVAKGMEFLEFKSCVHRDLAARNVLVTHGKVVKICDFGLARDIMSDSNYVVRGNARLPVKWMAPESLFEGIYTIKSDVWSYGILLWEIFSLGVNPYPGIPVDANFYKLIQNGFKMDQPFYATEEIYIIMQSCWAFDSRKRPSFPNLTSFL
Text: (§5) Methods for measuring binding affinities for interactions between small molecules and kinases including FLT3, c-KIT, ABL(T334I) [a.k.a. ABL(T315I)], VEGFR-2 (a.k.a. KDR), and EGFR are described in detail in U.S. application Ser. No. 10/873,835, which is incorporated by reference herein in its entirety. The components of the assays include human kinases expressed as fusions to T7 bacteriophage particles and immobilized ligands that bind to the ATP site of the kinases. […] If the test compound binds the kinase it competes with the immobilized ligand and prevents binding to the solid support. […] The results are read out by quantitating the amount of fusion protein bound to the solid support, which is accomplished by either traditional phage plaque assays or by quantitative PCR (qPCR) using the phage genome as a template. […] The concentration of test molecule that reduces the number of phage bound to the solid support by 50% is equal to the Kd for the interaction between the kinase and the test molecule. Typically, data are collected for twelve concentrations of test compound and, the resultant binding curve is fit to a non-cooperative binding isotherm to calculate Kd.
(§6) Described in the exemplary assays below is data from binding with varying kinases. […] The term “ND” represents non-determined values.

[3] = target: T2, ABL1 (Homo sapiens, UniProt P00519); experiment: ABL1 (DKIN) phage-display competitive binding assay
T2 construct: made in house
T2 sequence (P00519 242-493 limits assumed): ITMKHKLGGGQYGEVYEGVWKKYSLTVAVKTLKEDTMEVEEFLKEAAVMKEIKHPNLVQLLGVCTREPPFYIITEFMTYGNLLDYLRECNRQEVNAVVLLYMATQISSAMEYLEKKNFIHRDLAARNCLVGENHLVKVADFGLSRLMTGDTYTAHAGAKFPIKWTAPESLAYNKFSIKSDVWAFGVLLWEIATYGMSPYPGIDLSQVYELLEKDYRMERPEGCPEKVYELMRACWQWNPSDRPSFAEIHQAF
Text: as §5, §6

[4] = target: T3, PDGFR-β (Homo sapiens, UniProt P09619); experiment: PDGFR-β (DKIN) phage-display competitive binding assay
T3 construct: Kd for PDGFR-β (DKIN); made in house
Text: as §5, §6
Kd values for the interactions between PDGFR-β and candidate small molecule ligands were measured by a phage-display-based competitive binding assay that is described in detail in U.S. Ser. No. 10/406,797 filed 2 Apr. 2003 and incorporated herein by reference. Briefly, T7 phage displaying human PDGFR-β were incubated with an affinity matrix coated with known PDGFR-β inhibitor in the presence of various concentrations of the soluble competitor molecules. […] The Kd for the interaction between the soluble competitor molecule and PDGFR-β is equal to the concentration of soluble competitor molecule that causes a 50% reduction in the number of phage recovered in the eluate compared to a control sample lacking soluble competitor. Since this assay is generic, and any molecule can be used as a soluble competitor, we have determined Kd values for the interaction between PDGFR-β and several small molecules, including those shown below.

[5] = target: T4, VEGFR-2 (Homo sapiens, UniProt P35968); experiment: VEGFR-2 phage-display competitive binding assay
T4 construct: made in house
Text: as §5, §6

[6] = test system: MV4,11 cells; experiment: FLT-3 cell assay, (MV 4,11) cell proliferation assay with 10% serum "CS0005"; type: cell-based, human
Description: as §1, §2, §3
Day One: Enough cells were harvested for experiments to be conducted in 50 ml conical tubes. The harvested cells were spun at 500 g for 5 min at 4° C., the supernatant was then aspirated and the cells were resuspended in the starting volume of 1× PBS. The cells were again spun at 500 g for 5 min at 4° C. and the supernatant again aspirated. The cells were then resuspended in medium 3 (DMEM w/glut, 10% FBS, Penn/Strep) to a density of 4e^5 cells/ml and incubated @ 37° C. in 5% CO2 O/N.
as §4

T3 sequence (P09619 600-962 limits assumed): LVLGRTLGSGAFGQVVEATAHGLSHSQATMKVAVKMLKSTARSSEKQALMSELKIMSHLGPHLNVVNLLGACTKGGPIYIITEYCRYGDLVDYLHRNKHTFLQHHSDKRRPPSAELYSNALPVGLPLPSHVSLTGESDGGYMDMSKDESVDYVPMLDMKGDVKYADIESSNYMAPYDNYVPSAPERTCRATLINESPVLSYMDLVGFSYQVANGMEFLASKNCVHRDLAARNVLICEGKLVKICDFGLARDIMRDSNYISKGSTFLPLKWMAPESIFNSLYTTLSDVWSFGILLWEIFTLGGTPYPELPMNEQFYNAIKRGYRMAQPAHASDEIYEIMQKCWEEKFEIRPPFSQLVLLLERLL
T4 sequence (P35968 20-1356): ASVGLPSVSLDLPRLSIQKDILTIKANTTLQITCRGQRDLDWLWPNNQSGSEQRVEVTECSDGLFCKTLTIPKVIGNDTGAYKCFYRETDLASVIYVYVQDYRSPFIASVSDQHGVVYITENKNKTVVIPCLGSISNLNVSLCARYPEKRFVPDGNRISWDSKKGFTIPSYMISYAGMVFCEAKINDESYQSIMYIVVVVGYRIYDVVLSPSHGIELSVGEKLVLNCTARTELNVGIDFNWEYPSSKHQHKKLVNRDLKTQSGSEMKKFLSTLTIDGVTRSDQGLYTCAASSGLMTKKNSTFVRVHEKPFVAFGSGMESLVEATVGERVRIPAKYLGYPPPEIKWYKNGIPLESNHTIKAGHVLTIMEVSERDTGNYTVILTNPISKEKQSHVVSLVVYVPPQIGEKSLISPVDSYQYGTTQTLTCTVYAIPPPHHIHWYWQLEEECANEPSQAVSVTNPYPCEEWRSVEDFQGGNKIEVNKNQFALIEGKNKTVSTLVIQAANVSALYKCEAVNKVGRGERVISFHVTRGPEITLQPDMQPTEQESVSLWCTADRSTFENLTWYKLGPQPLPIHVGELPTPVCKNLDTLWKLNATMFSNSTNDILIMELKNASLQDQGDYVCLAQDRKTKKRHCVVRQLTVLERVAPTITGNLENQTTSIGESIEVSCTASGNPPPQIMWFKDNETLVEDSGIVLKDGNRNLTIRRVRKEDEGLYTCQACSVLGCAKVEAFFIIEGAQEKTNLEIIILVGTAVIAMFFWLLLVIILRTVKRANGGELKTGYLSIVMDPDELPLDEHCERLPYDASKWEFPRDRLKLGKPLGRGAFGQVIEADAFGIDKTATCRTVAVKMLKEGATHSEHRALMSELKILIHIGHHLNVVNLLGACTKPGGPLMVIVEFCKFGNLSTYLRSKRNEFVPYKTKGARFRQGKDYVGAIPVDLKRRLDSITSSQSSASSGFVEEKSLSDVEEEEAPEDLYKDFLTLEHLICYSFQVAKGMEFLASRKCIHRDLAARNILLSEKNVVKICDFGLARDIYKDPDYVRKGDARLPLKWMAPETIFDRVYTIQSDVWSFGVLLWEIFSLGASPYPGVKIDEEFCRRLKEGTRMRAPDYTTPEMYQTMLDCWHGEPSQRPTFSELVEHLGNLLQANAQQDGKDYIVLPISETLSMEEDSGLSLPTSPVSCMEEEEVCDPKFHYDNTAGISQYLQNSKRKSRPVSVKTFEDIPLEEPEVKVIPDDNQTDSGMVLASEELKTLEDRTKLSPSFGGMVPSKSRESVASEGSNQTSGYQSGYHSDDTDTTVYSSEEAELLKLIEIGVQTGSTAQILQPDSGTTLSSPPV

Row | Kd [4] [µM] | SMILES | also measured
1 | 0.1 to 1 | COc1ccc(-c2cc3c(Nc4ccc(F)cc4)ncnc3[nH]2)cc1 [Compound S9] | 
2 | 0.1 to 1 | COc1ccc(-c2cc3c(NCc4cccc(C)c4)ncnc3[nH]2)cc1 [Compound I4] | 
3 | 1 to 10 | COc1cccc(-c2cc3c(Nc4cccc(O)c4)ncnc3[nH]2)c1 [Compound S16] | Kd [3]: 0.1 to 1 µM; Kd [2]: 0.1 to 1 µM
4 | 0.1 to 1 | COc1ccc(-c2cc3c(N[C@H](C)c4ccccc4)nc(N[C@@H](C)c4ccccc4)nc3[nH]2)cc1 [Compound M22] | 
5 | > 10 | COc1ccc(-c2cc3c(Nc4cccc(O)c4)ncnc3[nH]2)cc1 [Compound S6] | 
6 | 0.1 to 1 | COC(=O)C(Nc1ncnc2[nH]c(-c3ccc(OC)cc3)cc12)c1ccccc1 (stereo not shown) [Compound I7] | 
7 | 0.1 to 1 | C[C@@H](Nc1ncnc2c1cc(-c1ccc(O)cc1)n2C)c1ccccc1 [Compound Q2] | 
8 | 0.1 to 1 | COc1cccc(-c2cc3c(N[C@H](C)c4ccccc4)ncnc3[nH]2)c1 [Compound I10] | 
9 | > 10 | COc1ccc(-c2cc3c(Nc4ccc(F)c(Cl)c4)ncnc3[nH]2)cc1 [Compound S7] | 
10 | 0.1 to 1 | COc1ccc(-c2cc3c(Nc4cccc(C)c4)ncnc3[nH]2)cc1 [Compound S10] | IC50 [1]: < 100 nM; activity in the FLT-3 cell assay, (MV 4,11) cell proliferation assay with 10% serum, "CS0005" [6]: ++ (a Kd of 1,000 nM to 10,000 nM)

Continued, compound first:

Row | SMILES | Kd [4] [µM] | also measured
11 | Cc1cc(C)cc(Nc2ncnc3[nH]c(-c4ccc(Br)cc4)cc23)c1 [Compound S39] |  | IC50 [1]: 100 to 1000 nM; Kd [2]: > 10 µM
12 | C[C@H](Nc1ncnc2[nH]c(-c3ccc(O)cc3)cc12)c1ccccc1 [Compound I9] |  | Kd [3]: 1 to 10 µM
13 | COc1ccc(-c2cc3c(NCCc4ccccc4)ncnc3[nH]2)cc1 [Compound I8] | 1 to 10 | Kd [3]: 0.1 to 1 µM
14 | COc1cccc(-c2cc3c(NCc4cccc(C)c4)ncnc3[nH]2)c1 [Compound I12] |  | Kd [2]: > 10 µM
15 | Cn1c(-c2ccc(O)cc2)cc2c(Nc3ccccc3Cl)ncnc21 [Compound Q3] | 0.1 to 1 | 
16 | CC(Nc1ncnc2oc(-c3ccccc3)c(-c3ccccc3)c12)c1ccccc1 (stereo not shown) [Compound H3] |  | Kd [5]: > 10 µM
17 | COc1ccc(-c2cc3c(N[C@@H](C)c4ccccc4)ncnc3n2C(C)C)cc1 [Compound D10] |  | Kd [3]: 1 to 10 µM
18 | COC(=O)c1cccc(Nc2ncnc3[nH]c(-c4cccc(OC)c4)cc23)c1 [Compound S15] | 1 to 10 | 
19 | CCc1ccccc1Nc1ncnc2c1cc(-c1ccc(O)cc1)n2C [Compound Q4] | 0.1 to 1 | 
